# Laboratory results as given in US20220387457A1 (Qlaris Bio, Inc., priority 2020, published 2022).
# Like-named read-outs stand apart in the source and are kept apart here.
# Experiment: Toxicokinetics after escalating intravenous doses of CKLP1 in beagles
# Type: in vivo, beagle dog
# Parameters: AUCTlast/Dose: unit not given here
# Settings: for AUC(0-t) / Cmax / RAUC / AUC(0-inf) / C0 / Tlast / Tmax / Vd / clearance / half-life / λZ range: dog, in vivo
# Experimental: Two beagles (one male and one female) were intravenously injected with escalating doses of CKPL1 (0.05 mg/kg, 0.5 mg/kg, 1.5 mg/kg, 3 mg/kg, and 5 mg/kg) to assess the toxicity of CKLP1. The injection was done through the cephalic vein and CKLP1 was administered in a phosphate buffered saline solution ((0.096% sodium phosphate dibasic, 0.089% sodium dihydrogen orthophosphate monohydrate, 0.83% sodium chloride) pH 6.5±0.1 in sterile water for injection USP). The dosing schedule is shown below in Table 3.
# The following parameters and endpoints were evaluated: mortality, clinical observations, body and organ weights, and food consumption. Bioanalytical samples for toxicokinetic parameters (for both CKLP1 and leveromakalim) were collected after each dose level (days 1, 3, 8, 10, and 14) at predose, 1, 3, 6, 8, and 24 hours postdose. Animals were released from the study after completion of the bioanalytical sample collection schedule.
# Toxicokinetics (TK) were determined based on the individual exposures for each animal on each sampled study day (days 1, 3, 8, 10, and 14). […] Predose samples had no quantifiable exposure in any animal on any day, with the exception of the female dog on day 10. The predose concentration for the female dog on day 10 was excluded from the TK analysis in order to allow for estimation of the IV C0.
# [1] = female dog, IV CKLP1 0.05 mg/kg, study day 1
# [2] = female dog, IV CKLP1 0.5 mg/kg, study day 3
# [3] = female dog, IV CKLP1 1.5 mg/kg, study day 8
# [4] = female dog, IV CKLP1 3 mg/kg, study day 10
# [5] = female dog, IV CKLP1 5 mg/kg, study day 14
# [6] = male dog, IV CKLP1 0.05 mg/kg, study day 1
# [7] = male dog, IV CKLP1 0.5 mg/kg, study day 3
# [8] = male dog, IV CKLP1 1.5 mg/kg, study day 8
# [9] = male dog, IV CKLP1 3 mg/kg, study day 10
# [10] = male dog, IV CKLP1 5 mg/kg, study day 14
smiles,measurement,setting,value
CC1(C)Oc2ccc(C#N)cc2[C@@H](N2CCCC2=O)[C@@H]1OP(=O)(O)O [CKLP1],gender differences in AUC values following each dose,IV CKLP1,less than 2 fold
same,AUC(0-t),"both sexes, beagle, CKLP1, IV 3 mg/kg, read-out: AUCTlast at MTD, sex-combined",107000 ng·h/mL
same,Cmax,"both sexes, beagle, CKLP1, IV 3 mg/kg, read-out: Cmax at MTD, sex-combined",16.4 µg/mL
same,RAUC,"iv, 0.05 mg/kg",LOO
same,plasma concentrations of CKLP1 relative to levcromakalim,early time points after IV CKLP1,more than 300 fold
same,AUCTlast/Dose,[1],41900
same,Cmax/Dose,[1],7.12e+06 µg/mL
same,AUCTlast/Dose,[2],41900
same,Cmax/Dose,[2],5.98e+06 µg/mL
same,AUCTlast/Dose,[3],40800
same,Cmax/Dose,[3],6.03e+06 µg/mL
same,AUCTlast/Dose,[4],42800
same,Cmax/Dose,[4],6.13e+06 µg/mL
same,AUCTlast/Dose,[5],62300
same,Cmax/Dose,[5],5.86e+06 µg/mL
same,AUC(0-inf),"female, beagle, iv, 0.05 mg/kg",2110 ng·h/mL
same,AUC(0-t),"female, beagle, iv, 0.05 mg/kg",2100 ng·h/mL
same,C0,"female, beagle, iv, 0.05 mg/kg",0.461 µg/mL
same,Cmax,"female, beagle, iv, 0.05 mg/kg",0.356 µg/mL
same,RAUC,"female, beagle, iv, 0.05 mg/kg",1.00
same,Tlast,"female, beagle, iv, 0.05 mg/kg",24.0 h
same,Tmax,"female, beagle, iv, 0.05 mg/kg",1 h
same,Vd,"female, beagle, iv, 0.05 mg/kg",0.112 L/kg
same,clearance,"female, beagle, iv, 0.05 mg/kg",0.395 mL/min/kg
same,half-life,"female, beagle, iv, 0.05 mg/kg",3.26 h
same,λZ range,"female, beagle, iv, 0.05 mg/kg",6 to 24 h
same,AUC(0-inf),"female, beagle, iv, 0.5 mg/kg",21200 ng·h/mL
same,AUC(0-t),"female, beagle, iv, 0.5 mg/kg",20900 ng·h/mL
same,C0,"female, beagle, iv, 0.5 mg/kg",3.67 µg/mL
same,Cmax,"female, beagle, iv, 0.5 mg/kg",2.99 µg/mL
same,RAUC,"female, beagle, iv, 0.5 mg/kg",10.0
same,Tlast,"female, beagle, iv, 0.5 mg/kg",24.0 h
same,Tmax,"female, beagle, iv, 0.5 mg/kg",1 h
same,Vd,"female, beagle, iv, 0.5 mg/kg",0.139 L/kg
same,clearance,"female, beagle, iv, 0.5 mg/kg",0.392 mL/min/kg
same,half-life,"female, beagle, iv, 0.5 mg/kg",4.11 h
same,λZ range,"female, beagle, iv, 0.5 mg/kg",6 to 24 h
same,AUC(0-inf),"female, beagle, iv, 1.5 mg/kg",62500 ng·h/mL
same,AUC(0-t),"female, beagle, iv, 1.5 mg/kg",61200 ng·h/mL
same,C0,"female, beagle, iv, 1.5 mg/kg",11 µg/mL
same,Cmax,"female, beagle, iv, 1.5 mg/kg",9.05 µg/mL
same,RAUC,"female, beagle, iv, 1.5 mg/kg",29.1
same,Tlast,"female, beagle, iv, 1.5 mg/kg",24.0 h
same,Tmax,"female, beagle, iv, 1.5 mg/kg",1 h
same,Vd,"female, beagle, iv, 1.5 mg/kg",0.162 L/kg
same,clearance,"female, beagle, iv, 1.5 mg/kg",0.4 mL/min/kg
same,half-life,"female, beagle, iv, 1.5 mg/kg",4.68 h
same,λZ range,"female, beagle, iv, 1.5 mg/kg",6 to 24 h
same,AUC(0-inf),"female, beagle, iv, 3 mg/kg",129000 ng·h/mL
same,AUC(0-t),"female, beagle, iv, 3 mg/kg",128000 ng·h/mL
same,C0,"female, beagle, iv, 3 mg/kg",22.7 µg/mL
same,Cmax,"female, beagle, iv, 3 mg/kg",18.4 µg/mL
same,RAUC,"female, beagle, iv, 3 mg/kg",61.0
same,Tlast,"female, beagle, iv, 3 mg/kg",24.0 h
same,Tmax,"female, beagle, iv, 3 mg/kg",1 h
same,Vd,"female, beagle, iv, 3 mg/kg",0.099 L/kg
same,clearance,"female, beagle, iv, 3 mg/kg",0.388 mL/min/kg
same,half-life,"female, beagle, iv, 3 mg/kg",2.94 h
same,λZ range,"female, beagle, iv, 3 mg/kg",6 to 24 h
same,AUC(0-inf),"female, beagle, iv, 5 mg/kg",330000 ng·h/mL
same,AUC(0-t),"female, beagle, iv, 5 mg/kg",311000 ng·h/mL
same,C0,"female, beagle, iv, 5 mg/kg",32.2 µg/mL
same,Cmax,"female, beagle, iv, 5 mg/kg",29.3 µg/mL
same,RAUC,"female, beagle, iv, 5 mg/kg",148
same,Tlast,"female, beagle, iv, 5 mg/kg",24.0 h
same,Tmax,"female, beagle, iv, 5 mg/kg",1 h
same,Vd,"female, beagle, iv, 5 mg/kg",0.131 L/kg
same,clearance,"female, beagle, iv, 5 mg/kg",0.253 mL/min/kg
same,half-life,"female, beagle, iv, 5 mg/kg",5.98 h
same,λZ range,"female, beagle, iv, 5 mg/kg",3 to 24 h
same,AUCTlast/Dose,[6],22400
same,Cmax/Dose,[6],4.9e+06 µg/mL
same,AUCTlast/Dose,[7],28500
same,Cmax/Dose,[7],5.2e+06 µg/mL
same,AUCTlast/Dose,[8],28800
same,Cmax/Dose,[8],5.13e+06 µg/mL
same,AUCTlast/Dose,[9],28400
same,Cmax/Dose,[9],4.8e+06 µg/mL
same,AUCTlast/Dose,[10],31700
same,Cmax/Dose,[10],4.48e+06 µg/mL
same,AUC(0-inf),"male, beagle, iv, 0.05 mg/kg",1230 ng·h/mL
same,AUC(0-t),"male, beagle, iv, 0.05 mg/kg",1120 ng·h/mL
same,C0,"male, beagle, iv, 0.05 mg/kg",0.301 µg/mL
same,Cmax,"male, beagle, iv, 0.05 mg/kg",0.245 µg/mL
same,Tlast,"male, beagle, iv, 0.05 mg/kg",8.00 h
same,Tmax,"male, beagle, iv, 0.05 mg/kg",1 h
same,Vd,"male, beagle, iv, 0.05 mg/kg",0.131 L/kg
same,clearance,"male, beagle, iv, 0.05 mg/kg",0.678 mL/min/kg
same,half-life,"male, beagle, iv, 0.05 mg/kg",2.23 h
same,λZ range,"male, beagle, iv, 0.05 mg/kg",3 to 8 h
same,AUC(0-inf),"male, beagle, iv, 0.5 mg/kg",14300 ng·h/mL
same,AUC(0-t),"male, beagle, iv, 0.5 mg/kg",14300 ng·h/mL
